Laboratory results: patent publication US8686143B2, “Compounds useful as inhibitors of Janus kinases” (Vertex Pharmaceuticals Incorporated, priority 2007, dated 2014)

Biological target: T1, JAK3 (Homo sapiens, UniProt P52333)
T1 sequence (P52333 1-1124): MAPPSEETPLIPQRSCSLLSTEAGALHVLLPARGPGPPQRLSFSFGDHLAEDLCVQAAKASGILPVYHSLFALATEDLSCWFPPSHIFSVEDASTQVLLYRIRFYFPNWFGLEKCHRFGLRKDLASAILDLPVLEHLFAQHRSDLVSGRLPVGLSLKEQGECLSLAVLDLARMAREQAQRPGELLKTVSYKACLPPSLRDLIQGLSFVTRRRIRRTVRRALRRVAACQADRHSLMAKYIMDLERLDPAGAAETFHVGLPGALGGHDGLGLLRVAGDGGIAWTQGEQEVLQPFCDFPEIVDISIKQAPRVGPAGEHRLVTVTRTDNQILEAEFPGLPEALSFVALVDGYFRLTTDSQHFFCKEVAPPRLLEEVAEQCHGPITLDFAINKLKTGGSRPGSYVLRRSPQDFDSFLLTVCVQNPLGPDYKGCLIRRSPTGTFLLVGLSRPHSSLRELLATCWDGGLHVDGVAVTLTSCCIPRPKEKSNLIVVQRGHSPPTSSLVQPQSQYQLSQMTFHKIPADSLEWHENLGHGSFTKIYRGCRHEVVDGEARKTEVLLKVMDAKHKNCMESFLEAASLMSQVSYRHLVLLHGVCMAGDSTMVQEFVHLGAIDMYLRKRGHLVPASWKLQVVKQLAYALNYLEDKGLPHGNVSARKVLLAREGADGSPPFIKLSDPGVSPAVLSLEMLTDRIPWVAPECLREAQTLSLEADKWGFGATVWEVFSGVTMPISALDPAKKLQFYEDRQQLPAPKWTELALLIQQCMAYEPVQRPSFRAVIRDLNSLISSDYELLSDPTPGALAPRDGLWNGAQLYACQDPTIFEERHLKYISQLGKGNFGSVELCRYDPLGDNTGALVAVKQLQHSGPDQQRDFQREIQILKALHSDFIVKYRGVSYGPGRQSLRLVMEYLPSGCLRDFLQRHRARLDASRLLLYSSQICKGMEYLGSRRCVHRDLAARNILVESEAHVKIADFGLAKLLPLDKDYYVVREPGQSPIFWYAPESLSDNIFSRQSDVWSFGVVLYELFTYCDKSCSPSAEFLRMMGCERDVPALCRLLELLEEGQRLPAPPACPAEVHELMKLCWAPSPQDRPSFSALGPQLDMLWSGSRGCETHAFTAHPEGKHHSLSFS
Assay: JAK3 Inhibition Assay (33P incorporation into poly(Glu)4Tyr)
Format: biochemical
Conditions: for Ki: 1 nM JAK3, 5 μM ATP, 1 μM poly(Glu)4Tyr, 25° C.
Protocol: Compounds were screened for their ability to inhibit JAK3 using the assay shown below. Reactions were carried out in a kinase buffer containing 100 mM HEPES (pH 7.4), 1 mM DTT, 10 mM MgCl2, 25 mM NaCl, and 0.01% BSA. Substrate concentrations in the assay were 5 μM ATP (200 uCi/μmole ATP) and 1 μM poly(Glu)4Tyr. Reactions were carried out at 25° C. and 1 nM JAK3.
To each well of a 96 well polycarbonate plate was added 1.5 μl of a candidate JAK3 inhibitor along with 50 μlof kinase buffer containing 2 μM poly(Glu)4Tyr and 10 μM ATP. This was then mixed and 50 μl of kinase buffer containing 2 nM JAK3 enzyme was added to start the reaction. After 20 minutes at room temperature (25° C.), the reaction was stopped with 50 μl of 20% trichloroacetic acid (TCA) that also contained 0.4 mM ATP. The entire contents of each well were then transferred to a 96 well glass fiber filter plate using a TomTek Cell Harvester. After washing, 60 μl of scintillation fluid was added and ^33P incorporation detected on a Perkin Elmer TopCount.

Row | Structure (SMILES) | Ki [µM] | inhibition of JAK3 at concentrations of 50 μM
1 | COc1ccc(-c2nccc(N3CCC[C@@H]3C(=O)NCC(F)(F)F)n2)cn1 [Compound 62] |  | did not inhibit
2 | CC(=O)Nc1nc2ccc(-c3nccc(N4CCC[C@@H]4C(=O)NCC(F)(F)F)n3)cc2s1 [Compound 63] | 10 to 50 | 
3 | COc1ccc(-c2ncc(F)c(NC(C)(C)C(=O)NCC(F)(F)F)n2)cn1 [Compound 69] |  | did not inhibit
4 | COc1ccc(-c2nccc(N[C@@H](C(=O)NCC(F)(F)F)C(C)C)n2)cn1 [Compound 70] |  | did not inhibit
5 | CC(C)[C@@H](Nc1ccnc(-c2ccc3c(c2)OCO3)n1)C(=O)NCC(F)(F)F [Compound 71] | 10 to 50 | 
6 | CC(C)[C@@H](Nc1nc(-c2ccc3c(c2)OCO3)ncc1F)C(=O)NCC(F)(F)F [Compound 76] | 10 to 50 | 
7 | COc1ccc(-c2nccc(NC(C)(C)C(=O)NCC(F)(F)F)n2)cn1 [Compound 80] | 10 to 50 | 
8 | COc1ccc(-c2ncc(F)c(N[C@@H](C(=O)NCC(F)(F)F)C(C)C)n2)cn1 [Compound 81] |  | did not inhibit
9 | O=C(NCC(F)(F)F)[C@H]1CCCN1c1ccnc(-c2ccc(=O)[nH]c2)n1 [Compound 83] | 10 to 50 | 
10 | CC(C)(Nc1nc(-c2ccc(=O)[nH]c2)ncc1F)C(=O)NCC(F)(F)F [Compound 84] | 10 to 50 | 
11 | CC(C)[C@@H](Nc1ccnc(-c2ccc(=O)[nH]c2)n1)C(=O)NCC(F)(F)F [Compound 85] | 10 to 50 | 
12 | CC(C)[C@@H](Nc1nc(-c2ccc(=O)[nH]c2)ncc1F)C(=O)NCC(F)(F)F [Compound 87] |  | did not inhibit
13 | O=C(NCC(F)(F)F)[C@H]1CCCN1c1nc(-c2ccc3c(c2)OCO3)ncc1F [Compound 88] | 10 to 50 | 
14 | O=C(NCC(F)(F)F)[C@H]1CCCN1c1nc(-c2ccc3ncccc3c2)ncc1F [Compound 89] | 10 to 50 | 
15 | Nc1nc2ccc(-c3ncc(F)c(N4CCC[C@@H]4C(=O)NCC(F)(F)F)n3)cc2s1 [Compound 90] |  | did not inhibit
16 | COc1ccc(-c2ncc(F)c(N3CCC[C@@H]3C(=O)NCC(F)(F)F)n2)cn1 [Compound 91] |  | did not inhibit
17 | CC(=O)Nc1nc2ccc(-c3ncc(F)c(N4CCC[C@@H]4C(=O)NCC(F)(F)F)n3)cc2s1 [Compound 92] |  | did not inhibit
18 | CCNC(=O)c1cc(-c2ncc(F)c(NC(C)(C)C(=O)NCC(F)(F)F)n2)c[nH]1 [Compound 93] | 1 to 10 | 
19 | CC(C)(Nc1nc(-c2c[nH]c(C(=O)NC3CC3)c2)ncc1F)C(=O)NCC(F)(F)F [Compound 94] | 1 to 10 | 
20 | CC(C)(Nc1nc(-c2c[nH]c(C(=O)NCc3ccccc3)c2)ncc1F)C(=O)NCC(F)(F)F [Compound 95] |  | did not inhibit
21 | CC(C)NC(=O)c1cc(-c2ncc(F)c(NC(C)(C)C(=O)NCC(F)(F)F)n2)c[nH]1 [Compound 96] | 10 to 50 | 
22 | CC(C)(Nc1ccnc(-c2c[nH]c(C(=O)NC3CC3)c2)n1)C(=O)NCC(F)(F)F [Compound 98] | 1 to 10 | 
23 | CC(C)(Nc1ccnc(-c2c[nH]c(C(=O)NCc3ccccc3)c2)n1)C(=O)NCC(F)(F)F [Compound 99] | 10 to 50 | 
24 | CC(C)NC(=O)c1cc(-c2nccc(NC(C)(C)C(=O)NCC(F)(F)F)n2)c[nH]1 [Compound 100] | 10 to 50 | 
25 | CNC(=O)c1cc(-c2ncc(F)c(N[C@@H](C(=O)NCC(F)(F)F)C(C)C)n2)c[nH]1 [Compound 103] | 10 to 50 | 
26 | CC(C)[C@@H](Nc1nc(-c2c[nH]c(C(=O)NCc3ccccc3)c2)ncc1F)C(=O)NCC(F)(F)F [Compound 104] | 1 to 10 | 
27 | CC(C)NC(=O)c1cc(-c2ncc(F)c(N[C@@H](C(=O)NCC(F)(F)F)C(C)C)n2)c[nH]1 [Compound 105] |  | did not inhibit
28 | CC(C)C(Nc1nc(-c2c[nH]c(C(=O)NCC3CC3)c2)ncc1F)C(=O)NCC(F)(F)F (stereo not drawn) [Compound 106] | 10 to 50 | 
29 | CC(C)C(Nc1nc(-c2c[nH]c(C(=O)N3CCCC3)c2)ncc1F)C(=O)NCC(F)(F)F (stereo not drawn) [Compound 107] | 1 to 10 | 
30 | CNC(=O)c1cc(-c2nccc(N[C@@H](C(=O)NCC(F)(F)F)C(C)C)n2)c[nH]1 [Compound 109] | 1 to 10 | 

The next lines start with the values.

Row | Ki [µM] | inhibition of JAK3 at concentrations of 50 μM | Structure (SMILES)
31 | ≤ 1 |  | Nc1ccc(Nc2nc(N)n(-c3ncc(F)c(N4CCCC4C(=O)NCC(F)(F)F)n3)n2)cc1 (stereo not drawn) [Compound 56]
32 | 1 to 10 |  | Nc1cccc(Nc2nc(N)n(-c3ncc(F)c(N4CCCC4C(=O)NCC(F)(F)F)n3)n2)c1 (stereo not drawn) [Compound 57]
33 | 1 to 10 |  | COc1ccc(Nc2nc(N)n(-c3ncc(F)c(NCC(=O)NCC(F)(F)F)n3)n2)cc1 [Compound 58]
34 | 1 to 10 |  | O=C(NCC(F)(F)F)[C@H]1CCCN1c1ccnc(-c2ccc3c(c2)OCO3)n1 [Compound 59]
35 | 1 to 10 |  | O=C(NCC(F)(F)F)[C@H]1CCCN1c1ccnc(-c2ccc3ncccc3c2)n1 [Compound 60]
36 | 1 to 10 |  | Nc1nc2ccc(-c3nccc(N4CCC[C@@H]4C(=O)NCC(F)(F)F)n3)cc2s1 [Compound 61]
37 | 1 to 10 |  | CC(=O)Nc1nc2ccc(-c3ncc(F)c(NC(C)(C)C(=O)NCC(F)(F)F)n3)cc2s1 [Compound 64]
38 | 1 to 10 |  | CC(=O)Nc1nc2ccc(-c3nccc(N[C@@H](C(=O)NCC(F)(F)F)C(C)C)n3)cc2s1 [Compound 65]
39 | 1 to 10 |  | CC(C)(Nc1nc(-c2ccc3nc(N)sc3c2)ncc1F)C(=O)NCC(F)(F)F [Compound 66]
40 | 1 to 10 |  | CC(C)(Nc1nc(-c2ccc3c(c2)OCO3)ncc1F)C(=O)NCC(F)(F)F [Compound 67]
41 | ≤ 1 |  | CC(C)(Nc1nc(-c2ccc3ncccc3c2)ncc1F)C(=O)NCC(F)(F)F [Compound 68]
42 | 1 to 10 |  | CC(C)[C@@H](Nc1ccnc(-c2ccc3ncccc3c2)n1)C(=O)NCC(F)(F)F [Compound 72]
43 | 1 to 10 |  | CC(C)[C@@H](Nc1ccnc(-c2ccc3nc(N)sc3c2)n1)C(=O)NCC(F)(F)F [Compound 73]
44 | ≤ 1 |  | CC(C)(Nc1ccnc(-c2ccc3c(c2)OCO3)n1)C(=O)NCC(F)(F)F [Compound 74]
45 | ≤ 1 |  | CC(C)(Nc1ccnc(-c2ccc3ncccc3c2)n1)C(=O)NCC(F)(F)F [Compound 75]
46 | 1 to 10 |  | CC(C)[C@@H](Nc1nc(-c2ccc3ncccc3c2)ncc1F)C(=O)NCC(F)(F)F [Compound 77]
47 | 1 to 10 |  | CC(C)[C@@H](Nc1nc(-c2ccc3nc(N)sc3c2)ncc1F)C(=O)NCC(F)(F)F [Compound 78]
48 | 1 to 10 |  | CC(C)(Nc1ccnc(-c2ccc3nc(N)sc3c2)n1)C(=O)NCC(F)(F)F [Compound 79]
49 | 1 to 10 |  | CC(=O)Nc1nc2ccc(-c3nccc(NC(C)(C)C(=O)NCC(F)(F)F)n3)cc2s1 [Compound 82]
50 | 1 to 10 |  | CC(C)(Nc1ccnc(-c2ccc(=O)[nH]c2)n1)C(=O)NCC(F)(F)F [Compound 86]
51 | ≤ 1 |  | CC(C)(Nc1nc(-c2c[nH]c(C(=O)N3CCCC3)c2)ncc1F)C(=O)NCC(F)(F)F [Compound 97]
52 | ≤ 1 |  | CC(C)(Nc1ccnc(-c2c[nH]c(C(=O)N3CCCC3)c2)n1)C(=O)NCC(F)(F)F [Compound 101]
53 | ≤ 1 |  | CC(C)(Nc1ccnc(-c2c[nH]c(C(=O)N3CC=CC3)c2)n1)C(=O)NCC(F)(F)F [Compound 102]
54 | ≤ 1 |  | CC(C)C(Nc1nc(-c2c[nH]c(C(=O)N3CC=CC3)c2)ncc1F)C(=O)NCC(F)(F)F (stereo not drawn) [Compound 108]
